From PubChem BioAssay AID328 (DTP/NCI, 2004)
Where “and” joins values, the source holds several entries; their conditions need not be identical. Identical values can stand only once. Toxic doses and inconclusive results are not listed.

Tested on: BDF1 mice, P388 leukemia ip, median survival T/C
Assay: NCI In Vivo Anticancer Drug Screen. Data for tumor model P388 Leukemia (intraperitoneal) in B6D2F1 (BDF1) mice
Details: endpoint: median survival time, higher = longer survival
Outline: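 Antitumour effect was judged in vivo: survival in drug-treated mice, normalised to that of vehicle-dosed controls, gives the reported T/C.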

[1] = dose: 200.0 mg/kg/injection, schedule: Q04DX003 (ip), vehicle: saline
[2] = dose: 50.0 mg/kg/injection, schedule: Q01DX009 (ip), vehicle: saline with Tween-80
[3] = dose: 100.0 mg/kg/injection, schedule: Q01DX009 (ip), vehicle: saline with Tween-80
[4] = dose: 200.0 mg/kg/injection, schedule: Q01DX009 (ip), vehicle: saline with Tween-80
[5] = dose: 50.0 mg/kg/injection, schedule: Q04DX003 (ip), vehicle: Klucel (hydroxypropylcellulose) (HPC)
[6] = dose: 25.0 mg/kg/injection, schedule: Q01DX009 (ip), vehicle: saline with Tween-80

With `C[N+](C)(C)CCCC[N+](C)(C)C` the T/C (dose: 25.0 mg/kg/injection, schedule: Q01DX009 (ip), vehicle: saline) was 93 % of control, the T/C (dose: 50.0 mg/kg/injection, schedule: Q01DX009 (ip), vehicle: saline) was 91 % of control and the T/C (dose: 50.0 mg/kg/injection, schedule: Q04DX003 (ip), vehicle: saline) was 103 % of control. For the same compound, the T/C (dose: 100.0 mg/kg/injection, schedule: Q01DX009 (ip), vehicle: saline) was 87 % of control, the T/C (dose: 100.0 mg/kg/injection, schedule: Q04DX003 (ip), vehicle: saline) was 103 % of control and the T/C (dose: 200.0 mg/kg/injection, schedule: Q01DX009 (ip), vehicle: saline) was 89 % of control and 93 % of control. The T/C [1] was 100 % of control and the T/C (dose: 300.0 mg/kg/injection, schedule: Q01DX009 (ip), vehicle: saline) was 93 % of control and 96 % of control.
With `COc1cc(C2=CC(OC)(OC)C=C(C(C)(C)C)C2=O)c(O)c(C(C)(C)C)c1` the T/C [2] was 105 % of control, the T/C [3] was 108 % of control and the T/C [4] was 112 % of control.
For `O=C(c1ccccc1)C1CCCCC1`, the T/C (dose: 12.0 mg/kg/injection, schedule: Q04DX003 (ip), vehicle: Klucel (hydroxypropylcellulose) (HPC)) was 104 % of control, the T/C (dose: 25.0 mg/kg/injection, schedule: Q04DX003 (ip), vehicle: Klucel (hydroxypropylcellulose) (HPC)) was 109 % of control and the T/C [5] was 100 % of control. The T/C [1] was 107 % of control and the T/C (dose: 400.0 mg/kg/injection, schedule: Q04DX003 (ip), vehicle: saline) was 107 % of control.
With `Nc1ccc(N=Nc2ccccc2)c(N)n1` the T/C [5] was 100 % of control and the T/C (dose: 100.0 mg/kg/injection, schedule: Q04DX003 (ip), vehicle: Klucel (hydroxypropylcellulose) (HPC)) was 100 % of control.
In the case of `O=C1C=C(C2OC(CO)C(O)C2O)C(=O)N1` (stereo not drawn), the T/C (dose: 0.2 mg/kg/injection, schedule: Q01DX010 (ip), vehicle: saline) is reported as 110 % of control, the T/C (dose: 0.37 mg/kg/injection, schedule: Q01DX001 (ip), vehicle: saline) is reported as 95 % of control and the T/C (dose: 0.5 mg/kg/injection, schedule: Q01DX010 (ip), vehicle: saline) is reported as 110 % of control. The T/C (dose: 0.75 mg/kg/injection, schedule: Q01DX001 (ip), vehicle: saline) was 91 % of control, the T/C (dose: 1.5 mg/kg/injection, schedule: Q01DX001 (ip), vehicle: saline) was 95 % of control and the T/C (dose: 2.0 mg/kg/injection, schedule: Q01DX010 (ip), vehicle: saline) was 150 % of control. For the same compound, the T/C (dose: 3.0 mg/kg/injection, schedule: Q01DX001 (ip), vehicle: saline) was 110 % of control, the T/C (dose: 6.0 mg/kg/injection, schedule: Q01DX001 (ip), vehicle: saline) was 100 % of control and the T/C (dose: 8.0 mg/kg/injection, schedule: Q01DX010 (ip), vehicle: saline) was 150 % of control and 155 % of control and 157 % of control. The T/C (dose: 12.0 mg/kg/injection, schedule: Q01DX001 (ip), vehicle: saline) was 100 % of control and the T/C (dose: 16.0 mg/kg/injection, schedule: Q01DX010 (ip), vehicle: saline) was 121 % of control.
`Cc1onc(-c2ccccc2)c1NC(=O)OC(C)c1cccnc1` (stereo not drawn) was tested, and the T/C [2] was 103 % of control, the T/C [3] was 108 % of control and the T/C [4] was 119 % of control.
In the case of `C=C1C(=O)OC2C1CCC(=C)C1CC(O)C(=C)C12` (stereo not drawn), the T/C (dose: 7.4 mg/kg/injection, schedule: Q01DX009 (ip), vehicle: saline with Tween-80) is reported as 91 % of control, the T/C (dose: 11.0 mg/kg/injection, schedule: Q01DX009 (ip), vehicle: saline with Tween-80) is reported as 104 % of control and the T/C (dose: 16.0 mg/kg/injection, schedule: Q01DX009 (ip), vehicle: saline with Tween-80) is reported as 91 % of control. The T/C [6] was 100 % of control.
In the case of `O=S(=O)(O)CCBr`, the T/C (dose: 265.0 mg/kg/injection, schedule: Q01DX001 (ip), vehicle: saline) is reported as 90 % of control, the T/C (dose: 267.0 mg/kg/injection, schedule: Q01DX001 (ip), vehicle: saline) is reported as 100 % of control and the T/C (dose: 400.0 mg/kg/injection, schedule: Q01DX001 (ip), vehicle: saline) is reported as 86 % of control and 90 % of control.
For `CCC(=O)NC(C(=O)NC(C(=O)NC(CC(C)C)C(O)CC(=O)NC(C)C(=O)NC(CC(C)C)C(O)CC(=O)O)C(C)C)C(C)C` (stereo not drawn), the T/C (dose: 12.5 mg/kg/injection, schedule: Q01DX009 (ip), vehicle: saline with Tween-80) was 100 % of control, the T/C [6] was 109 % of control and the T/C [2] was 109 % of control and 114 % of control. For the same compound, the T/C [3] was 94 % of control.
